Data as given in ChEMBL document CHEMBL4219215, “Discovery of {4-[4,9-bis(ethyloxy)-1-oxo-1,3-dihydro-2H-benzo[f]isoindol-2-yl]-2-fluorophenyl}acetic acid (GSK726701A), a novel EP4 receptor partial agonist for the treatment of pain” (Bioorg Med Chem Lett, 2018).
pEC50, pIC50, pKi: −log10 of the molar value. Active and inactive are the calls of the source. No cut-off for these calls is given here.

What was measured:
[1] = molecular target: T1, Prostaglandin E2 receptor EP4 subtype (Homo sapiens, UniProt P35408); test: Displacement of [3H]PGE2 from human EP4 receptor expressed in HEK 293 (EBNA) cell membranes incubated for 60 mins by scintillation counting method
T1 sequence (P35408 whole entry): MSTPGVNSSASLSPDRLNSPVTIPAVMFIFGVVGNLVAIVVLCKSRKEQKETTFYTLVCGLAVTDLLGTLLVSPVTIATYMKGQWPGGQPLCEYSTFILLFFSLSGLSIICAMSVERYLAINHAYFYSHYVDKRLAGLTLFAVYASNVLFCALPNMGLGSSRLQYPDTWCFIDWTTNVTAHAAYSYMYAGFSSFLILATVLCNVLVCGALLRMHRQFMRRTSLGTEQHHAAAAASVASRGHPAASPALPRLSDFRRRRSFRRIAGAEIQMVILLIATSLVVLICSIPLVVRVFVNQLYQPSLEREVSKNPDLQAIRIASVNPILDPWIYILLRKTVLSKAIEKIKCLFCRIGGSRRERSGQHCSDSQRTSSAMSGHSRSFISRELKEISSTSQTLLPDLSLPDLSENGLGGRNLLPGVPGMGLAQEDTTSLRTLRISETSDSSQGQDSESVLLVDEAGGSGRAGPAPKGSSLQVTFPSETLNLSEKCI

[2] = molecular target: T1, Prostaglandin E2 receptor EP4 subtype; test: Partial agonist activity at human EP4 receptor expressed in HEK293-AEQ17 cells assessed as cAMP accumulation by aequorin luminescence assay; format: functional, cell-based
Rattus norvegicus [3] = test: Analgesic activity in rat model of chronic constriction injury-induced neuropathic pain assessed as reversal of mechanical allodynia at 30 mg/kg dosed twice daily for 8 days relative to untreated control; format: functional; conditions: 192 h
Rattus norvegicus [4] = test: Analgesic activity in rat model of Freund's complete adjuvant-induced acute inflammatory pain assessed as reversal of FCA-induced hypersensitivity at 3 mg/kg, po relative to untreated control; format: functional
Rattus norvegicus [5] = test: Analgesic activity in rat model of Freund's complete adjuvant-induced acute inflammatory pain assessed as reversal of FCA-induced hypersensitivity at 10 mg/kg, po relative to untreated control; format: functional
[6] = Half life in rat at 1 mg/kg, po; format: ADME, organism-based; conditions: in vivo
[7] = Intrinsic clearance in rat liver microsomes; format: ADME, microsome
Cytochrome P450 2D6 = Cytochrome P450 2D6 (Homo sapiens, UniProt P10635); test: Inhibition of human recombinant CYP2D6; format: ADME
Sequence of Cytochrome P450 2D6 (P10635 whole entry): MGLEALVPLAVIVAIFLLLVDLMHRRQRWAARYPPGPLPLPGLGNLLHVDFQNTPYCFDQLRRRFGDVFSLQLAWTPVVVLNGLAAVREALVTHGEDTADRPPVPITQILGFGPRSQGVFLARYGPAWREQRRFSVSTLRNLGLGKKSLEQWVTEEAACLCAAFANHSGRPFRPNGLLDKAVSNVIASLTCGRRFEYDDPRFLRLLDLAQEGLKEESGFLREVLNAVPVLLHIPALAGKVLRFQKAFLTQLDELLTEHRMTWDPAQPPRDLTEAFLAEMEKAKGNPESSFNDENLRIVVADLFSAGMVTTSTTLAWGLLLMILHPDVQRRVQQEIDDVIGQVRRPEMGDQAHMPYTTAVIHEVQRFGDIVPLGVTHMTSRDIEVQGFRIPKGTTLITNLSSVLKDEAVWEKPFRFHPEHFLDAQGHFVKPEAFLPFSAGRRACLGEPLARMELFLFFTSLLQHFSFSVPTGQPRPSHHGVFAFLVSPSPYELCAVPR

Cytochrome P450 1A2 = molecular target: T2, Cytochrome P450 1A2 (Homo sapiens, UniProt P05177); test: Inhibition of human recombinant CYP1A2; format: ADME
T2 sequence (P05177 whole entry): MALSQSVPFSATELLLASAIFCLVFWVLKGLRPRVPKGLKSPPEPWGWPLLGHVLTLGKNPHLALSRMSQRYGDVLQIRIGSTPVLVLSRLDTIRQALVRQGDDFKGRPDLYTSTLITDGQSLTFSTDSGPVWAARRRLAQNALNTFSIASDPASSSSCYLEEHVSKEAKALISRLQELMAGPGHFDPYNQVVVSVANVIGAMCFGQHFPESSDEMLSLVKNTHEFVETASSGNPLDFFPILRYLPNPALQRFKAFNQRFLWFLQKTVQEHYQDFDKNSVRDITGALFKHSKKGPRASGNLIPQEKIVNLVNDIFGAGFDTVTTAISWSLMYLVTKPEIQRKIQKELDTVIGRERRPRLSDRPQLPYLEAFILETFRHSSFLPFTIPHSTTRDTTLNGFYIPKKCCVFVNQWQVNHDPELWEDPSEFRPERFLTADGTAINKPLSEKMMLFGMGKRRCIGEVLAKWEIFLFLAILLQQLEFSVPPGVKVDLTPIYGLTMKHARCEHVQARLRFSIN

[8] = Intrinsic clearance in human liver microsomes; format: ADME, microsome
Cytochrome P450 2C19 = Cytochrome P450 2C19 (Homo sapiens, UniProt P33261); test: Inhibition of human recombinant CYP2C19; format: ADME
Sequence of Cytochrome P450 2C19 (P33261 whole entry): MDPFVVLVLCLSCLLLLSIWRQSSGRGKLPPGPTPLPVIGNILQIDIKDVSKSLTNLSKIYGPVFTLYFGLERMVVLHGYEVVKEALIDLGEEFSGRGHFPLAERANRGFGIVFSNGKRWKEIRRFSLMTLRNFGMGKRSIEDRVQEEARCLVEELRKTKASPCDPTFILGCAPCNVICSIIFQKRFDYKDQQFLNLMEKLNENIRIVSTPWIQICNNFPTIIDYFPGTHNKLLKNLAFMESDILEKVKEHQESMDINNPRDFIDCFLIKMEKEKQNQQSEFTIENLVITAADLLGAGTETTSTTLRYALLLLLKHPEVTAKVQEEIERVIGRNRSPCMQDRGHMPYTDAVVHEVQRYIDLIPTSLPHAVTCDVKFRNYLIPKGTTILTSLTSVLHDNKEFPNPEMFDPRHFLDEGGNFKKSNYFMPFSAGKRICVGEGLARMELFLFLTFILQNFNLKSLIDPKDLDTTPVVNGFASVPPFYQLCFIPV

Cytochrome P450 3A4 [9] = molecular target: T3, Cytochrome P450 3A4 (Homo sapiens, UniProt P08684); test: Inhibition of human recombinant CYP3A4 using 7BQ substrate; format: ADME
T3 sequence (P08684 whole entry): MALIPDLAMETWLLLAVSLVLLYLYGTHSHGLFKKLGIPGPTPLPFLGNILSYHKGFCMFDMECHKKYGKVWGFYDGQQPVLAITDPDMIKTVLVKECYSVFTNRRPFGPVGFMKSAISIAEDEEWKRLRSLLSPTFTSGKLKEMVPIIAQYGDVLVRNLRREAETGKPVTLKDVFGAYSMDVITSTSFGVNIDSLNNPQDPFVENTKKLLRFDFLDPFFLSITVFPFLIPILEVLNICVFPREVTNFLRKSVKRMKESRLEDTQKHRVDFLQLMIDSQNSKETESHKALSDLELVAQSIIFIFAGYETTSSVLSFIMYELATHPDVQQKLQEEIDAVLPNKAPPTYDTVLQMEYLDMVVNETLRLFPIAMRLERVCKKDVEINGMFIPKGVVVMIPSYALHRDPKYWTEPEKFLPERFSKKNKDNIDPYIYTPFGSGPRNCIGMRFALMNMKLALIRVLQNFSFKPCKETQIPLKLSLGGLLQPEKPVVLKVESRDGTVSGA

Cytochrome P450 2C9 = Cytochrome P450 2C9 (Homo sapiens, UniProt P11712); test: Inhibition of human recombinant CYP2C9; format: ADME
Sequence of Cytochrome P450 2C9 (P11712 whole entry): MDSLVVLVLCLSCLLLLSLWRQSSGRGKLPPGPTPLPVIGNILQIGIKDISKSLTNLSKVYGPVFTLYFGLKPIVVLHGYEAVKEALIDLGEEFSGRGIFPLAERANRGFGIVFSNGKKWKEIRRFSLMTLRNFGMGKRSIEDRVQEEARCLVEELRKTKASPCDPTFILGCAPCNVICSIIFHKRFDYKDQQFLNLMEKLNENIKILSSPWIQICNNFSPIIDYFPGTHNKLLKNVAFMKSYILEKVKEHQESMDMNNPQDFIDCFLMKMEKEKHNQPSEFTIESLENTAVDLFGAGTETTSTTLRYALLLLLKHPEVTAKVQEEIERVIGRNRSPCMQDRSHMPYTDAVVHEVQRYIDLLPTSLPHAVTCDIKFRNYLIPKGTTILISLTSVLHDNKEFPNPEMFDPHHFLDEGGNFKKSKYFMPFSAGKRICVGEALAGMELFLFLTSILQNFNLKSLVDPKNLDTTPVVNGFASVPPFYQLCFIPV

Rattus norvegicus [10] = test: Volume of distribution at steady state in rat at 1 mg/kg, […]; format: ADME, organism-based; conditions: in vivo
[11] = Blood clearance in rat at 1 mg/kg, po; format: ADME, organism-based
Cytochrome P450 3A4 [12] = molecular target: T3, Cytochrome P450 3A4; test: Inhibition of human recombinant CYP3A4 using DEF substrate; format: ADME
Rattus norvegicus [13] = test: Analgesic activity in rat model of chronic joint pain assessed as reversal of pain by measuring weight bearing level at 30 mg/kg, po dosed twice daily for 5 days relative to untreated control; conditions: 120 h, read-out: INH
Rattus norvegicus [14] = test: Analgesic activity in orally dosed rat model of Freund's complete adjuvant-induced acute inflammatory pain assessed as reversal of FCA-induced hypersensitivity; format: functional; conditions: po
Rattus norvegicus [15] = test: Analgesic activity in rat model of Freund's complete adjuvant-induced acute inflammatory pain assessed as reversal of FCA-induced hypersensitivity at 10 mg/kg, po pre-challenged with 3 mg/kg, po selective EP4 antagonist GW627368X; format: functional, organism-based
[16] = Total drug level in blood of orally dosed rat model of Freund's complete adjuvant-induced acute inflammatory pain assessed as reduction in reversal of hypersensitivity; format: ADME, organism-based; conditions: in vivo, po, read-out: Drug uptake

## CCOc1c2c(c(OCC)c3ccccc13)C(=O)N(c1ccc(C(C)C(=O)O)cc1)C2 (stereo unspecified)
[1]
  pKi: 6.70
[2]
  pEC50: < 6.00

## COc1c2c(c(OC)c3ccccc13)C(=O)N(c1ccc(CC(=O)O)cc1)C2=O
[2]
  pEC50: 6.70

## CCOc1c2c(c(OCC)c3ccccc13)CN(c1ccc(CC(=O)O)cc1)C2
[1]
  pKi: 6.20
[2]
  pEC50: 6.60

## CCCCCCOc1c2c(c(OCCCCCC)c3ccccc13)C(=O)N(c1ccc(CC(=O)O)cc1)C2
[1]
  pKi: < 5.20
[2]
  pEC50: < 6.00

## NCC1(CC(=O)O)CCCCC1 [GABAPENTIN]
Rattus norvegicus [3]
  inhibition in vivo at 30 mg/kg: 100%

## CCCCOc1c2c(c(OCCCC)c3ccccc13)C(=O)N(c1ccc(CC(=O)O)cc1)C2
[1]
  pKi: 5.70
[2]
  pEC50: 6.70

## CCOc1c2c(c(OCC)c3ccccc13)C(=O)N(c1ccc(CC(=O)O)cc1F)C2
Rattus norvegicus [4]
  Activity: 5%
[2]
  pEC50: 8.40

## CCOc1c2c(c(OCC)c3cc(F)ccc13)C(=O)N(c1ccc(CC(=O)O)cc1)C2=O
[2]
  pEC50: 7.10

## CCOc1c2c(c(OCC)c3ncccc13)C(=O)N(c1ccc(CC(=O)O)cc1)C2=O
[1]
  pKi: 7.50
[2]
  pEC50: < 6.00

## CCOc1c2c(c(OCC)c3ccccc13)C(=O)N(c1ccc(CC(=O)O)cc1Cl)C2
Rattus norvegicus [4]
  Activity: 14%
[2]
  pEC50: 8.30

## CCOc1c2c(c(OCC)c3ccccc13)C(=O)N(c1ccc(CC(=O)O)c(Cl)c1)C2
[2]
  pEC50: < 6.00

## CCOc1c2c(c(OCC)c3cc(C)ccc13)C(=O)N(c1ccc(CC(=O)O)cc1)C2=O
Rattus norvegicus [5]
  Activity: 76%
[6]
  half-life: 31.7 h
[1]
  pKi: 6.80
[2]
  pEC50: 7.70

## CCCOc1c2c(c(OCCC)c3ccccc13)C(=O)N(c1ccc(CC(=O)O)cc1)C2
[1]
  pKi: 6.20
[2]
  pEC50: 6.90

## CCOc1c2c(c(OCC)c3ccccc13)C(=O)N(c1ccc(CC(=O)O)cc1)C2=O
[7]
  CLH: < 0.5 mL/min/g
Cytochrome P450 2D6
  pIC50: 4.38
Cytochrome P450 1A2
  pIC50: 4.19
[8]
  CLH: < 0.5 mL/min/g
[6]
  half-life: 19.9 h
Cytochrome P450 2C19
  pIC50: < 4.00
[1]
  pKi: 6.80
Cytochrome P450 3A4 [9]
  pIC50: < 4.00
Cytochrome P450 2C9
  pIC50: < 4.00
Rattus norvegicus [10]
  Vdss: 0.28 L/kg
[11]
  CL/F: 0.2 mL/min/kg
Cytochrome P450 3A4 [12]
  pIC50: < 4.00
[2]
  pEC50: 7.60

## CCOc1c2c(c(OCC)c3ccccc13)C(=O)N(c1ccc(CC(=O)O)cc1C)C2
Rattus norvegicus [4]
  Activity: 19%
[2]
  pEC50: 8.10

## CCOc1c2c(c(OCC)c3ccccc13)C(=O)N(c1ccc(CC(=O)O)cc1Br)C2
Rattus norvegicus [5]
  Activity: 47%
[2]
  pEC50: 8.30

## Cc1ccc(-c2cc(C(F)(F)F)nn2-c2ccc(S(N)(=O)=O)cc2)cc1 [CELECOXIB]
Rattus norvegicus [13]
  inhibition in vivo at 30 mg/kg: 100%
Rattus norvegicus [5]
  Activity: Active

## CCOc1c2c(c(OCC)c3ccccc13)C(=O)N(c1ccc(CC(=O)O)cc1C(F)(F)F)C2
[2]
  pEC50: 7.30

## CCOc1c2c(c(OCC)c3ccccc13)C(=O)N(c1ccc(CC(=O)O)cc1)C2
Rattus norvegicus [14]
  ED50: 1.5 mg/kg
[6]
  half-life: 8.5 h
[1]
  pKi: 7.10
Rattus norvegicus [15]
  Activity: inactive
Rattus norvegicus [10]
  Vdss: 0.3 L/kg
[11]
  CL/F: 0.6 mL/min/kg
[2]
  pEC50: 7.70
[16]
  concentration: 5 to 11 µM

## CCOc1c2c(c(OCC)c3ccccc13)C(=O)N(c1ccc(CC(=O)O)c(C)c1)C2
[2]
  pEC50: < 6.00

## CCOc1c2c(c(OCC)c3ccccc13)C(=O)N(c1ccc(CC(=O)O)cc1OC)C2
[2]
  pEC50: 8.00

## CC(C)Oc1c2c(c(OC(C)C)c3ccccc13)C(=O)N(c1ccc(CC(=O)O)cc1)C2
[1]
  pKi: 6.40
[2]
  pEC50: 7.40
